“Also recorded” adds a separate entry of the source. Blank lines part the entries; values can stand above or below the molecule they belong to.
Columns and labels:
Format in all cases: cell-based, human
H23R cells [1] = experiment: Viability to CDDP after aptamer transfection (resistance index); details: comparison value for apMAFG6F
Procedure: FIG. 6. Viability curves combining the best dose of aptamers (25nM) and increasing doses of CDDP. Each experimental group was exposed for 72 h to 6 different CDDP concentrations after aptamers transfection; data were normalized to each untreated control, set to 100% and represent the mean±SD of at least 3 independent experiments performed in quadruplicate at each drug concentration for each cell line analyzed 25nM of aptamers and increasing doses of CDDP in H23S/R cells.
Once identified the best dose of aptamers, cells were transfected with aptamers and treated with increased doses of CDDP to assay viability and ROS production as mentioned above. In parallel, for all the experiments, cells were seeded in 24-well plates for aptamers extraction and confirmation of aptamers transfection.
(§1) HEK293 and H23S/R cells were seeded into 96-well plates then transfected with 5, 12.5, 25, 75 and 100 nM of MAFG aptamers or treated with PBS-Mg using Jet Pei PolyPlus transfection reagent (PolyPlus Transfection, USA). The dose of 25 nM aptamer was afterwards used in combination with increased doses of CDDP to assay viability and ROS production as described above. To confirm the aptamer-transfection efficiency cells were seeded in 24-well plates for aptamer isolation and confirmation of aptamer transfection by quantitative analysis. A Myc-DDK-tagged ORF clone of MAFG the negative control pCMV6 were used for in transient transfection (OriGene, USA) in combination with MAFG-aptamers following the same procedure.

H1299 cells = experiment: Viability to CDDP with and without apMAFG6F
Text: The human cancer cells H23 and A2780, and the HEK-293T epithelial cells were purchased from ATCC (Manassas, USA) and ECACC (Sigma, Spain) and cultured as recommended. The CDDP-resistant variants H23R and A2780R were established in our laboratory as previously described, using CDDP (Farma Ferrer, Spain) for cell viability assays. To validate the results obtained from the resistant cell lines established in our laboratory, we also used the CDDP-resistant lung cancer cell line H1299, with IC50 over 7, purchased from ATCC and maintained as recommended.
as §1

NRF2 = experiment: Semiquantitative RT-PCR expression after cisplatin treatment
Procedure: For semiquantitative RT-PCR, 500 ng of total RNA isolated from cell lines was used for RT reaction using PrimeScript™ RT Master (Clontech-Takara, USA) and subsequent semiquantitative PCR using Promega PCR Mix (Promega, USA) as previously described. Relative quantification was performed by measuring the intensity of band amplified using ImageJ software. Primers for HMOX1 (F: 5′-[…]-3′; R: 5′-[…]-3′), MAFG (F: 5′-[…]-3′; R: 5′-[…]-3′) and GAPDH (F: 5′-GAGAGACCCTCACTGCTG-3′; R: 5′-[…]-3′) were designed to include the probe from the array in order to assure the correct transcript identification.

H23R cells [2] = experiment: ROS production and viability after aptamer transfection and CDDP treatment
Procedure: FIG. 7: Viability and ROS production assay in H23R cells after apMAFG6F transfection. Each experimental group was exposed for 72 h to 6 different CDDP concentrations, and data were normalized to each untreated control, set to 100%. The data represent the mean±SD of at least 2 independent experiments performed in duplicate at each drug concentration for each cell line analyzed.
H23/A2780 cells were cultured in 96-well black plates at density of 10,000 cells/well. Cells were treated with 6 different doses of CDDP for 24, 48 and 72 h in RPMI containing 10% FBS. Then treatments were removed and cells were loaded with the fluorescent probe 2′,7′-dichlorodihydrofluorescein diacetate (H2DCFDA) (10 μM) for 45 minutes in RPMI medium (FBS free). Cells were washed twice with RPMI (10% FBS), and fluorescence was recorded in a Fluostar Optima, each hour, over 4 hours period. […] ROS production was calculated dividing the mean H2DCFDA fluorescence by the mean viability. […] All experiments included cells treated with RPMI alone (Basal), and one well without cells as fluorescence basal.
H23/A2780 cells were cultured in 96-well black plates at density of 10,000 cells/well. […] Cells were washed twice with RPMI (10% FBS), and fluorescence was recorded in a Fluostar Optima at 520 nm after excitation at 485 nm. […] ROS production was calculated dividing the mean H2DCFDA fluorescence by the mean viability. […]

CDDP IC50 (H1299 cells; H1299, as stated in materials, unit not given): over 7
Molecule: [NH2][Pt]([NH2])([Cl])[Cl] [CDDP, Cisplatin]
CDDP resistance index without aptamer (H23R cells [1]): 2.63 | CDDP IC50 (H1299 cells; untransfected H1299): 10 µg/mL | NRF2 expression after cisplatin treatment (NRF2): did not changed

B1: GCGGATGAAGACTGGTGTCGATGCATGTGTAGTGCATTTCGAGCCGTTCTATTGGTGTGCCCTAAATACGAGCAAC (nucleic acid)
chain: GCGGATGAAGACTGGTGTCGATGCATGTGTAGTGCATTTCGAGCCGTTCTATTGGTGTGCCCTAAATACGAGCAAC
modifications: chemistry not given here
notes: DNA aptamer selected against the MAFG protein by SELEX
cell viability after aptamer transfection and CDDP (H23R cells [2]; measured in parallel to ROS): decrease of cell viability; also recorded: decrease in cell viability | ROS production after aptamer transfection and CDDP (H23R cells [2]; resistant cells carrying aptamer vs untransfected, p<0.005 at 4 μg/ml CDDP): increase of ROS production; also recorded: linear dose-response relationship

From patent US20200270310A1, “MAFG AS A POTENTIAL THERAPEUTIC TARGET TO RESTORE CHEMOSENSITIVITY IN PLATINUM-RESISTANT CANCER CELLS” (FUNDACÓIN PARA LA INVESTIGACIÓN BIOMÉDICA DEL HOSPITAL …, priority 2017, published 2020)
